Measurements taken from patent publication US20130310362A1, “FUSED PYRIMIDINES” (BAYER PHARMA AKTIEGESELLSCHAFT, priority 2009, published 2013).

Experiments:
[1] = test system: Akt phosphorylation (Ser473) in MCF7 cells; assay: Cellular PI3K/Akt pathway assay (Phospho-Akt1 (Ser473) sandwich ELISA); assay type: cell-based; conditions: Homo sapiens, β-Heregulin stimulated, 48 h incubation, read-out: IC50 p-Akt (Biological Assay 5.0)
Description: Biological Assay 5.0: Cellular PI3K/Akt Pathway Assay
In order to study the cellular activity of the compounds according to the present invention, an Enzyme Linked Immunosorbent Assay (ELISA)-based assay may be used to investigate the inhibitory effect on Akt phosphorylation.
The ELISA Kit detects endogenous levels of phosphorylated Akt protein. […] After incubation with cell lysates, the coated antibody captures the phosphorylated Akt protein. […] The magnitude of optical density for this developed color is proportional to the quantity of phosphorylated Akt protein. MCF7 cells (ATCC HTB-22) are seeded into 96 well fate bottom plates at a density of 10000 cells/well. 24 hours after seeding, the cells are serum starved using low-serum medium (IMEM media including 0.1% charcoal treated FCS (FCS: fetal calf serum)). After 24 hours 1 μl each of the compound dilutions (test compounds were dissolved as 10 mM solutions in dimethylsulfoxide (DMSO) and subsequently diluted) are added into each well of the 96 well plates and incubated for 48 h at 37° C. in a humidified athmosphere containing 5% CO2. To stimulate Akt phosphorylation, β-Heregulin (20 ng/mL β-HRG) is added in parallel to the compounds. Wells containing unstimulated control cells (no β-Heregulin stimulation) are incubated with or without the diluted compound. Wells containing untreated control cells (no compound) are filled with medium containing 0.5% v:v DMSO and are or are not stimulated with 3-Heregulin.
Cells are harvested and lysed with brief sonification in 1× cell lysis buffer (20 mM Tris (pH7.5), 150 mM NaCl, 1 mM ethylene diaminetetraacetate (EDTA), 1 mM ethylene glycolbis(2-aminoethyl)-N,N,N′,N′-tetraacetic acid (EGTA), 1 vol % Triton X-100, 2.5 mM sodium pyrophosphate, 1 mM β-glycerolphosphate, 1 mM Na3VO4, 1 μg/mL leupeptin). The lysate is centrifuged for 10 min. at 4° C. and the supernatant is transferred to a new tube. […] The absorbance is measured at λ=450 nm (Wallac Victor2; Perkin Elmer, USA) within 30 min. after adding the STOP solution. […]

[2] = biological target: T1, human recombinant kinase full-length Akt1 (Homo sapiens, UniProt P31749); assay: Akt1 kinase assay (TR-FRET); assay type: biochemical; conditions: 10 μM ATP, 1 μM peptide substrate, 60 min at 22° C.; read-out: IC50 Akt1 Biological Assay 1.0)
T1 construct: human recombinant kinase full-length Akt1; His; purchased Invitrogen PV 3599; host or cells: insect cells
Description: Biological Assay 1.0: Akt1 Kinase Assay
Akt1 inhibitory activity of compounds of the present invention may be quantified employing the Akt1 TR-FRET assay as described in the following paragraphs.
His-tagged human recombinant kinase full-length Akt1 expressed in insect cells was purchased form Invitrogen (part number PV 3599). As substrate for the kinase reaction the biotinylated peptide biotin-Ahx-KKLNRTLSFAEPG (C-terminus in amide form) was used which can be purchased e.g. from the company Biosynthan GmbH (Berlin-Buch, Germany).
(§1) For the assay 50 nl of a 100 fold concentrated solution of the test compound in DMSO was pipetted into a black low volume 384 well microtiter plate (Greiner Bio-One, Frickenhausen, Germany), 2 μl of a solution of Akt1 in assay buffer [50 mM TRIS/HCl pH 7.5, 5 mM MgCl2, 1 mM dithiothreitol, 0.02% (v/v) Triton X-100 (Sigma)] were added and the mixture was incubated for 15 min at 22° C. to allow pre-binding of the test compounds to the enzyme before the start of the kinase reaction. Then the kinase reaction was started by the addition of 3 μl of a solution of adenosine-tri-phosphate (ATP, 16.7 μM=>final conc. in the 5 μl assay volume is 10 μM) and substrate (1.67 μM=>final conc. in the 5 μl assay volume is 1 μM) in assay buffer and the resulting mixture was incubated for a reaction time of 60 min at 22° C. The concentration of Akt1 in the assay was adjusted depending of the activity of the enzyme lot and was chosen appropriate to have the assay in the linear range, typical enzyme concentrations were in the range of about 0.05 ng/μl (final conc. in the 5 μl assay volume).
(§2) The reaction was stopped by the addition of 5 μl of a solution of HTRF detection reagents (200 nM streptavidine-XL665 [Cisbio] and 1.5 nM anti-phosho-Serine antibody [Millipore, cat. #35-001] and 0.75 nM LANCE Eu-W 1024 labeled anti-mouse IgG antibody [Perkin Elmer]) in an aqueous EDTA-solution (100 mM EDTA, 0.1% (w/v) bovine serum albumin in 50 mM HEPES/NaOH pH 7.5). The resulting mixture was incubated 1 h at 22° C. to allow the binding of the biotinylated phosphorylated peptide to the streptavidine-XL665 and the antibodies. Subsequently the amount of phosphorylated substrate was evaluated by measurement of the resonance energy transfer from the anti-mouse-IgG-Eu-Chelate to the streptavidine-XL665. Therefore, the fluorescence emissions at 620 nm and 665 nm after excitation at 350 nm was measured in a HTRF reader, e.g. a Rubystar (BMG Labtechnologies, Offenburg, Germany) or a Viewlux (Perkin-Elmer). The ratio of the emissions at 665 nm and at […] was taken as the measure for the amount of phosphorylated substrate. The data were normalised (enzyme reaction without inhibitor=0% inhibition, all other assay components but no enzyme=100% inhibition). Normally test compound were tested on the same microtiter plate at 10 different concentrations in the range of 20 μM to 1 nM (20 μM, 6.7 μM, 2.2 μM, 0.74 μM, 0.25 μM, 82 nM, 27 nM, 9.2 nM, 3.1 nM and 1 nM, dilution series prepared before the assay at the level of the 100 fold conc. stock solutions by serial 1:3 dilutions) in duplicate values for each concentration and 1050 values were calculated by a 4 parameter fit using an inhouse software.

[3] = biological target: T2, human recombinant kinase full-length Akt2 (Homo sapiens, UniProt P31751); assay: Akt2 kinase assay (TR-FRET); assay type: biochemical; conditions: Akt2 activated by PDK1, 10 μM ATP, 1 μM peptide substrate, 60 min at 22° C.; read-out: IC50 Akt2 (Biological Assay 2.0)
T2 construct: human recombinant kinase full-length Akt2; His; purchased Invitrogen PV 3975; host or cells: insect cells
Description: Biological Assay 2.0: Akt2 Kinase Assay
Akt2 inhibitory activity of compounds of the present invention was quantified employing the Akt2 TR-FRET assay as described in the following paragraphs.
as §1, with “His-tagged human recombinant kinase full-length Akt2 expressed in insect cells and activated by PDK1 was purchased form Invitrogen (part number PV 3975). As substrate for the kinase reaction the biotinylated peptide biotin-Ahx-KKLNRTLSFAEPG (C-terminus in amide form) was used which can be purchased e.g. from the company Biosynthan GmbH (Berlin-Buch, Germany). For” for “For”, “Akt2” for “Akt1”, “0.2” for “0.05”
as §2, with “a TR-FRET” for “a HTRF”, “inhibition).” for “inhibition). Normally test compound were tested on the same microtiter plate at 10 different concentrations in the range of 20 μM to 1 nM (20 μM, 6.7 μM, 2.2 μM, 0.74 μM, 0.25 μM, 82 nM, 27 nM, 9.2 nM, 3.1 nM and 1 nM, dilution series prepared before the assay at the level of the 100 fold conc. stock solutions by serial 1:3 dilutions) in duplicate values for each concentration and 1050 values were calculated by a 4 parameter fit using an inhouse software.”

T2 sequence (P31751 whole entry): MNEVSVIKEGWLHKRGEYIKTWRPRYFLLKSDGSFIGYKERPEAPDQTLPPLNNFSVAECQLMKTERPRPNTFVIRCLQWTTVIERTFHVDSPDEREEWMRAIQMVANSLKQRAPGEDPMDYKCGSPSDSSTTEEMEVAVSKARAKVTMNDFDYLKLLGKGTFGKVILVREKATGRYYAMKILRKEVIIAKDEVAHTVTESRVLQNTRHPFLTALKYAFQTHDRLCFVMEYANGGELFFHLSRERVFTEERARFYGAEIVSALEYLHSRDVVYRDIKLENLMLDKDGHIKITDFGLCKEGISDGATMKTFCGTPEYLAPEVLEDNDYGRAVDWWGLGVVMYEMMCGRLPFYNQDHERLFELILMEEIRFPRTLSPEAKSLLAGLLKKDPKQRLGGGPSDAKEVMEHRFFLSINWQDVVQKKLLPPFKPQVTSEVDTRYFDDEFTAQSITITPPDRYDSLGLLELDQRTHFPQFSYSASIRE
T1 sequence (P31749 whole entry): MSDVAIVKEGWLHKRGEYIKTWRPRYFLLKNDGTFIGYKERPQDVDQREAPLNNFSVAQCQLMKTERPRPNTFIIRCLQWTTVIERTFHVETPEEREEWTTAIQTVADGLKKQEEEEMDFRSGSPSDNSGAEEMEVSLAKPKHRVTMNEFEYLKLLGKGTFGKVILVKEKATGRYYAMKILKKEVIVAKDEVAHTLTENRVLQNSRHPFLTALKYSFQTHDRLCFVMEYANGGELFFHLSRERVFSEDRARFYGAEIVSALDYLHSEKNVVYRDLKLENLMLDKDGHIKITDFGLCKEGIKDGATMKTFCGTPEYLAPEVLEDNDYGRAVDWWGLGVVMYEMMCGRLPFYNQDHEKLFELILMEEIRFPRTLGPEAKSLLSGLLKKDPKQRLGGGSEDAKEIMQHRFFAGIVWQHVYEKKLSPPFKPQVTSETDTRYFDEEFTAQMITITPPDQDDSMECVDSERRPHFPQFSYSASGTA

Row | Compound | IC50 [1] [nM] | IC50 [2] [nM] | IC50 [3] [nM]
1 | Cc1nnc2c(-c3ccccc3)c(-c3ccc(CN4CCC(c5n[nH]c(-c6ccccn6)n5)CC4)cc3)ncn12 [Example 4.0, 3-methyl-8-phenyl-7-{4-[4-(5-pyridin-2-yl-1H-[1,2,4]triazol-3-yl)-piperidin-1-ylmethyl]-phenyl}-[1,2,4]triazolo[4,3-c]pyrimidine] | < 500 | – | –
2 | Cc1ccc(-c2nc(C3CCN(Cc4ccc(-c5nc(C)n6ccnc6c5-c5ccccc5)cc4)CC3)n[nH]2)nc1C [Example 5.0, 7-(4-{4-[5-(5,6-dimethyl-pyridin-2-yl)-1H-[1,2,4]triazol-3-yl]-piperidin-1-ylmethyl}-phenyl)-5-methyl-8-phenyl-imidazo[1,2-c]pyrimidine] | – | 3 | 27
3 | Cc1nc(-c2ccc(CN3CC(c4n[nH]c(-c5ccccn5)n4)C3)cc2)c(-c2ccccc2)c2nccn12 [Example 6.0, 5-methyl-8-phenyl-7-{4-[3-(5-pyridin-2-yl-1H-[1,2,4]triazol-3-yl)-azetidin-1-ylmethyl]-phenyl}-imidazo[1,2-c]pyrimidine] | – | 3 | 81
4 | Cc1nc(-c2ccc(CN3CCC(c4n[nH]c(-c5cnccn5)n4)CC3)cc2)c(-c2ccccc2)c2nccn12 [Example 7.0, 5-methyl-8-phenyl-7-{4-[4-(5-pyrazin-2-yl-1H-[1,2,4]triazol-3-yl)-piperidin-1-ylmethyl]-phenyl}-imidazo[1,2-c]pyrimidine] | – | 12 | 334
5 | Cc1nc(-c2ccc(CN3CCC(c4n[nH]c(-c5ncccn5)n4)CC3)cc2)c(-c2ccccc2)c2nccn12 [Example 8.0, 5-methyl-8-phenyl-7-{4-[4-(5-pyrimidin-2-yl-1H-[1,2,4]triazol-3-yl)-piperidin-1-ylmethyl]-phenyl}-imidazo[1,2-c]pyrimidine] | – | 14 | 414
6 | c1ccc(-c2c(-c3ccc(CN4CCC(c5n[nH]c(-c6cnccn6)n5)CC4)cc3)ncn3ccnc23)cc1 [Example 11.0, 8-phenyl-7-{4-[4-(5-pyrazin-2-yl-1H-[1,2,4]triazol-3-yl)-piperidin-1-ylmethyl]-phenyl}-imidazo[1,2-c]pyrimidine] | – | 29 | 445
7 | Cc1cc(C)nc(-c2nc(C3CCN(Cc4ccc(-c5ncn6ccnc6c5-c5ccccc5)cc4)CC3)n[nH]2)c1 [Example 14.0, 7-(4-{4-[5-(4,6-dimethyl-pyridin-2-yl)-1H-[1,2,4]triazol-3-yl]-piperidin-1-ylmethyl}-phenyl)-8-phenyl-imidazo[1,2-c]pyrimidine] | – | 7 | 16
8 | FC(F)(F)c1ccnc(-c2nc(C3CCN(Cc4ccc(-c5ncn6ccnc6c5-c5ccccc5)cc4)CC3)n[nH]2)c1 [Example 15.0, 8-phenyl-7-(4-{4-[5-(4-trifluoromethyl-pyridin-2-yl)-1H-[1,2,4]triazol-3-yl]-piperidin-1-ylmethyl}-phenyl)-imidazo[1,2-c]pyrimidine] | – | 22 | 222
9 | c1ccc(-c2c(-c3ccc(CN4CC(c5n[nH]c(-c6ccccn6)n5)C4)cc3)ncn3ccnc23)cc1 [Example 16.0, 8-phenyl-7-{4-[3-(5-pyridin-2-yl-1H-[1,2,4]triazol-3-yl)-azetidin-1-ylmethyl]-phenyl}-imidazo[1,2-c]pyrimidine] | – | 12 | 52

Further lines, results first:

Row | IC50 [1] [nM] | IC50 [2] [nM] | IC50 [3] [nM] | Compound
10 | – | 18 | 185 | Brc1ccc(-c2nc(C3CCN(Cc4ccc(-c5ncn6ccnc6c5-c5ccccc5)cc4)CC3)n[nH]2)nc1 [Example 9.0, 7-(4-{4-[5-(5-bromo-pyridin-2-yl)-1H-[1,2,4]triazol-3-yl]-piperidin-1-ylmethyl}-phenyl)-8-phenyl-imidazo[1,2-c]pyrimidine]
11 | – | 7 | 38 | Cc1ccc(-c2nc(C3CCN(Cc4ccc(-c5ncn6ccnc6c5-c5ccccc5)cc4)CC3)n[nH]2)nc1C [Example 10.0, 7-(4-{4-[5-(5,6-dimethyl-pyridin-2-yl)-1H-[1,2,4]triazol-3-yl]-piperidin-1-ylmethyl}-phenyl)-8-phenyl-imidazo[1,2-c]pyrimidine]
12 | – | 19 | 98 | Fc1ccc(-c2nc(C3CCN(Cc4ccc(-c5ncn6ccnc6c5-c5ccccc5)cc4)CC3)n[nH]2)nc1 [Example 11.1, 7-(4-{4-[5-(5-fluoro-pyridin-2-yl)-1H-[1,2,4]triazol-3-yl]-piperidin-1-ylmethyl}-phenyl)-8-phenyl-imidazo[1,2-c]pyrimidine]
13 | – | 8 | 50 | Cc1ccc(-c2nc(C3CCN(Cc4ccc(-c5ncn6ccnc6c5-c5ccccc5)cc4)CC3)n[nH]2)nc1 [Example 12.0, 7-(4-{4-[5-(5-methyl-pyridin-2-yl)-1H-[1,2,4]triazol-3-yl]-piperidin-1-ylmethyl}-phenyl)-8-phenyl-imidazo[1,2-c]pyrimidine]
14 | – | 16 | 132 | Clc1cccc(-c2nc(C3CCN(Cc4ccc(-c5ncn6ccnc6c5-c5ccccc5)cc4)CC3)n[nH]2)n1 [Example 13.0, 7-(4-{4-[5-(6-chloro-pyridin-2-yl)-1H-[1,2,4]triazol-3-yl]-piperidin-1-ylmethyl}-phenyl)-8-phenyl-imidazo[1,2-c]pyrimidine]
